Results reported in patent US11400106B2, “Methods for inhibiting microbe growth” (priority 2018, dated 2022).
Like-named read-outs stand apart in the source and are kept apart here.

Legend:
E. coli = experiment: microbe, parasite or virus in culture; format: cell-based, Escherichia coli; settings: for MIC: Escherichia coli; for Fold, E. coli: fold shift in MIC
Procedure: (§1) In the following experiments, bacterial cells were cultured in 96-well microtiter plates in cation-adjusted Mueller-Hinton Broth (MHB) for 18 h at 37° C. The main strains used were E. coli (K-12 BW25113) (placed in stationary incubator) and S. aureus (Newman Strain) (incubated at 250 r.p.m). Knockout strains (ΔtolcC and ΔychM) were used from the Keio knockout collection (Baba et al., Construction of Escherichia coli K-12 in-frame, single-gene knockout mutants: the Keio collection. Mol Syst Biol 2, 2006 0008, doi:10.1038/msb4100050 (2006)). For MIC determination and checkerboard analyses, Clinical & Laboratory Standards Institute (CLSI) protocol was used. […] DiSC3 loading of S. aureus cells was performed as previously described (Farha et al., Collapsing the proton motive force to identify synergistic combinations against Staphylococcus aureus. Chemistry & biology 20, 1168-1178, doi:10.1016/j.chembiol.2013.07.006 (2013)). CCCP concentration of 20 μM was used. pH adjustments were made by addition of HCl or NaOH. INT assay and ATP bioluminescence assays were performed as previously described (Farha et al., Collapsing the proton motive force to identify synergistic combinations against Staphylococcus aureus. Chemistry & biology 20, 1168-1178, doi:10.1016/j.chembiol.2013.07.006 (2013)). For chemical-genomic studies, the Keio library was grown overnight in cation-adjusted MHB broth, in 384-well plates. From these, treatment plates (25 mM sodium bicarbonate, or a sterile water control) were inoculated and grown for 15 hours at 37° C., in a stationary incubator. Data was normalized according to Mangat et al (Mangat et al., Rank ordering plate data facilitates data visualization and normalization in high-throughput screening. J Biomol Screen 19, 1314-1320, doi:10.1177/1087057114534298 (2014)), with gene products and GO terms mined from EcoCyc. The GFP promoter library (Keseler et al., EcoCyc: fusing model organism databases with systems biology. Nucleic Acids Res 41, D605-612, doi:10.1093/nar/gks1027 (2013)) was grown for 18 hours at ambient temperature with the same inoculation strategy as with the Keio collection. The analysis pipeline of Zaslaver et al (Zaslaver et al., A comprehensive library of fluorescent transcriptional reporters for Escherichia coli. Nat Methods 3, 623-628, doi:10.1038/nmeth895 (2006)) was used to generate maps of promoter activity, from which lists of promoters with increased or decreased activity were compiled.
(§2) Fold enhancement in MICs in the media supplemented with sodium bicarbonate is represented by a positive fold, whereas suppression of activity is represented by a negative fold.
(§3) The effect of sodium bicarbonate on the activity of additional antibacterial agents was investigated. Clinical isolates of various bacteria were obtained from the ATCC and the IHMA.
(§4) The effect of sodium bicarbonate on the activity of cationic antiseptic agents was investigated. Clinical isolates of various bacteria were obtained from the ATCC and the IHMA.

S. aureus = experiment: microbe, parasite or virus in culture; settings: for MIC: Staphylococcus aureus, 18 h, read-out: MIC, S. aureus, MHB−; for Fold, S. aureus: fold shift in MIC
Procedure: as §1, §2, §3, §4

[1] = 18 h, antibiotic agents, MHB in the absence of sodium bicarbonate, read-out: MIC, E. coli, MHB−
[2] = 18 h, MHB in the absence of sodium bicarbonate, read-out: MIC, E. coli, MHB−
[3] = antiseptic agents, MHB in the absence of sodium bicarbonate
[4] = antiseptic agents, MHB in the presence of 25 mM sodium bicarbonate
[5] = antibiotic agents, MHB in the absence of sodium bicarbonate
[6] = antibiotic agents, MHB− vs MHB+

Compound | MIC, E. coli, MHB+ (E. coli) | MIC (E. coli; [1]) [µg/mL] | MIC, S. aureus, MHB+ (S. aureus) | MIC (S. aureus) [µg/mL] | MIC (E. coli; [2]) [µg/mL] | other results
CC[C@H]1OC(=O)[C@H](C)[C@@H](O[C@H]2C[C@@](C)(OC)[C@@H](O)[C@H](C)O2)[C@H](C)[C@@H](O[C@@H]2O[C@H](C)C[C@H](N(C)C)[C@H]2O)[C@](C)(OC)C[C@@H](C)C(=O)[C@H](C)[C@@H](O)[C@]1(C)O [Clarithromycin] | 8 μg of antimicrobial agent/mL of buffer | 64 | 0.062 μg of antimicrobial agent/mL of buffer | 0.5 |  | 
CCC[C@@H]1C[C@@H](C(=O)N[C@@H]([C@H]2O[C@H](SC)[C@H](O)[C@@H](O)[C@H]2O)[C@H](C)Cl)N(C)C1 [Clindamycin] | 128 μg of antimicrobial agent/mL of buffer | 128 | 0.12 μg of antimicrobial agent/mL of buffer | 0.25 |  | 
Cc1onc(-c2ccccc2Cl)c1C(=O)N[C@@H]1C(=O)N2[C@@H]1SC(C)(C)[C@@H]2C(=O)O [Cloxacillin] |  |  | 0.5 | 0.031 | 256 | 
N=C(N)c1ccc(OCCCOc2ccc(C(=N)N)cc2Br)c(Br)c1.O=S(=O)(O)CCO.O=S(=O)(O)CCO [Dibrompropamidine diisetionate] |  |  |  |  |  | MIC, E. coli, MHB (E. coli; [3]): 64 μg of antimicrobial agent/mL of buffer; MIC, E. coli, MHB+ (E. coli; [4]): 16 μg of antimicrobial agent/mL of buffer; Fold, E. coli (E. coli; antiseptic agents): 4; MIC, S. aureus, MHB (S. aureus; [3]): 4 μg of antimicrobial agent/mL of buffer; MIC, S. aureus, MHB+ (S. aureus; [4]): 1 μg of antimicrobial agent/mL of buffer; Fold, S. aureus (S. aureus; antiseptic agents): 4
CC[C@H]1OC(=O)[C@H](C)[C@@H](O[C@H]2C[C@@](C)(OC)[C@@H](O)[C@H](C)O2)[C@H](C)[C@@H](O[C@@H]2O[C@H](C)C[C@H](N(C)C)[C@H]2O)[C@](C)(O)C[C@@H](C)[C@@H]2N[C@@H](COCCOC)O[C@H]([C@H]2C)[C@]1(C)O [Dirithromycin] |  |  | 0.5 | 4 | 128 | MIC (E. coli; E. coli, no salt, pH adjusted to 7.4, read-out: MIC of dirithromycin, control): 128 µg/mL
C[C@H]1c2cccc(O)c2C(=O)C2=C(O)[C@]3(O)C(=O)C(C(N)=O)=C(O)[C@@H](N(C)C)[C@@H]3[C@@H](O)[C@@H]21 [Doxycycline] |  |  | 2 | 0.125 | 1 | 
CCn1cc(C(=O)O)c(=O)c2cc(F)c(N3CCNCC3)nc21 [Enoxacin] |  |  | 2 | 1 | 0.25 | 
O=CN(O)CCCP(=O)(O)O [Fosmidomycin] |  |  | >64 | > 64 | 16 | 
CC(=O)O[C@H]1C[C@@]2(C)[C@@H](C[C@@H](O)[C@H]3[C@@]4(C)CC[C@@H](O)[C@@H](C)[C@@H]4CC[C@@]32C)/C1=C(\CCC=C(C)C)C(=O)O [Fusidic acid] | >128 μg of antimicrobial agent/mL of buffer | > 128 | 2 μg of antimicrobial agent/mL of buffer | 0.5 |  | 
COc1c(N2CCNC(C)C2)c(F)cc2c(=O)c(C(=O)O)cn(C3CC3)c12 (centres unmarked) [Gatifloxacin] | 4 μg of antimicrobial agent/mL of buffer | 16 | 8 μg of antimicrobial agent/mL of buffer | 4 |  | 
CCCCCCCCCCCCCCCC[N+](C)(C)C.[Br-] [Hexadecyltrimethylammonium bromide] | 8 μg of antimicrobial agent/mL of buffer |  | 0.25 μg of antimicrobial agent/mL of buffer |  |  | MIC, E. coli, MHB (E. coli): 32 μg of antimicrobial agent/mL of buffer; MIC, S. aureus, MHB (S. aureus): 0.5 μg of antimicrobial agent/mL of buffer
CN[C@H]1C[C@@H](N)[C@H](O)[C@@H](O[C@@H]2O[C@H](CO)[C@H](O)[C@@H]3OC4(O[C@H]23)O[C@H]([C@@H](N)CO)[C@H](O)[C@H](O)[C@H]4O)[C@@H]1O (some centres unmarked) [Hygromycin B] | 16 μg of antimicrobial agent/mL of buffer |  |  |  |  | MIC, E. coli, MHB− (E. coli; [5]): 32 μg of antimicrobial agent/mL of buffer; Fold, E. coli (E. coli; [6]): 2; MIC, S. aureus, MHB− (S. aureus; [5]): >128 μg of antimicrobial agent/mL of buffer; MIC, S. aureus, MHB+ (S. aureus; antibiotic agents, MHB in the presence of 25 mM sodium bicarbonate): 64 μg of antimicrobial agent/mL of buffer; Fold, S. aureus (S. aureus; [6]): 2
NC[C@H]1O[C@H](O[C@H]2[C@H](O)[C@@H](O[C@H]3O[C@H](CO)[C@@H](O)[C@H](N)[C@H]3O)[C@H](N)C[C@@H]2N)[C@H](O)[C@@H](O)[C@@H]1O [Kanamycin] |  |  | 4 | 8 | 4 | 
C[C@H]1COc2c(N3CCN(C)CC3)c(F)cc3c(=O)c(C(=O)O)cn1c23 [Levofloxacin] |  |  | 1 | 0.5 | 0.0313 | 
CCC[C@@H]1C[C@@H](C(=O)N[C@@H]([C@H]2O[C@H](SC)[C@H](O)[C@@H](O)[C@H]2O)[C@@H](C)O)N(C)C1 [Lincomycin] | 32 μg of antimicrobial agent/mL of buffer | > 128 | 0.0625 μg of antimicrobial agent/mL of buffer | 0.25 |  | 
CC(=O)NC[C@H]1CN(c2ccc(N3CCOCC3)c(F)c2)C(=O)O1 [Linezolid] |  |  | 0.625 | 0.625 | 256 | effect of 25 mM sodium bicarbonate on antibacterial activity (E. coli): remained largely unchanged; effect of 25 mM sodium bicarbonate on antibacterial activity (S. aureus; S. aureus, result in words): remained largely unchanged
CCn1cc(C(=O)O)c(=O)c2cc(F)c(N3CCNC(C)C3)c(F)c21 (centres unmarked) [Lomefloxacin] | 0.125 μg of antimicrobial agent/mL of buffer | 0.5 | 8 μg of antimicrobial agent/mL of buffer | 4 |  | 
C/C(=C\C(=O)OCCCCCCCCC(=O)O)C[C@@H]1OC[C@H](C[C@@H]2O[C@H]2[C@@H](C)[C@H](C)O)[C@@H](O)[C@H]1O [Mupirocin] | 128 μg of antimicrobial agent/mL of buffer | 128 | 2 μg of antimicrobial agent/mL of buffer | 0.5 |  | 
CC1CCc2c(N3CCC(O)CC3)c(F)cc3c(=O)c(C(=O)O)cn1c23 (centres unmarked) [Nadifloxacin] | 32 μg of antimicrobial agent/mL of buffer | 8 | 0.5 μg of antimicrobial agent/mL of buffer | 0.12 |  | 
CCOc1ccc2ccccc2c1C(=O)N[C@@H]1C(=O)N2[C@@H]1SC(C)(C)[C@@H]2C(=O)O [Nafcillin] | 32 μg of antimicrobial agent/mL of buffer | 16 | 1 μg of antimicrobial agent/mL of buffer | 0.25 |  | 
CCn1cc(C(=O)O)c(=O)c2ccc(C)nc21 [Nalidixic acid] |  |  | 32 | > 8 | 2 | effect of 25 mM sodium bicarbonate on antibacterial activity (E. coli): suppressed
